Reference: patent US4877876A, “Novel indenothiazole derivative and process for preparing the same” (Hisamitsu Pharmaceutical Co., Inc., priority 1986, dated 1989)
Counter-ions that a name gives are not always drawn.

Each molecule was assayed on Wistar-strained male rats (assay: Pharmacological test: ulcer inhibition against ethanol-induced ulcer in rats). Settings: test compounds 50 mg/kg orally, one hour before 1 ml pure ethanol orally; compared with 0.5% tragacanth control.
Assay type: in vivo
Description: Groups each consisting of 9 to 10 Wistar-strained male rats, each weighing about 200 g, were used in the test after their abstinence from food and water for 24 hours. Each test compound of this invention was administered in an amount of 50 mg/kg and a comparative medicine, "Neuer" (tradename: produced by Daiichi Pharmaceutical Co., Ltd.; effective component: centraxate) in an amount of 300 mg/kg. Each of the test compounds was administered orally to each rat of a first group and the comparative medicine to each rat of a second group one hour before oral administration of 1 ml of pure ethanol per rat. One hour later, each rat was sacrificed by exsanguination and its stomach was enucleated and fixed with 10 ml of 70% ethanol for about 30 minutes. A 0.5% tragacanth solution was administered to each rat of a third group. The ulcer was measured for length with naked eyes, and the test groups of rats were measured for their respective ulcer inhibition ratios in comparison with that for the third group.
Both the test compounds and the comparative medicine were each suspended or dissolved in a 0.5% tragacanth gum saline solution for use in the test. […] [formula]

Compared with `Fc1ccc2c(c1)Cc1sc(NCCCN3CCOCC3)nc1-2` [Example 1 (dihydrochloride), 2-(3-morpholinopropyl)amino-6-fluoro-8H-indeno[1.2-d]thiazole], `c1ccc2c(c1)Cc1sc(NCCCN3CCOCC3)nc1-2` [Example 61] is lower in Ulcer inhibition ratio: 94.1% for the first, 90.0% for the second.

Compared with `Fc1ccc2c(c1)Cc1sc(NCCCN3CCOCC3)nc1-2` [Example 1 (maleic acid salt), 2-(3-morpholinopropyl)amino-6-fluoro-8H-indeno[1.2-d]thiazole], `c1ccc2c(c1)Cc1sc(NCCCCN3CCOCC3)nc1-2` [Example 92] is lower in Ulcer inhibition ratio: 89.5% for the first, 83.4% for the second.

Going from `Fc1ccc2c(c1)Cc1sc(NCCCN3CCOCC3)nc1-2` [Example 1, 2-(3-morpholinopropyl)amino-6-fluoro-8H-indeno[1.2-d]thiazole] to `Clc1ccc2c(c1)-c1nc(NCCN3CCOCC3)sc1C2` [Example 59], the Ulcer inhibition ratio falls from 89.0% to 85.0%.

Compared with `Fc1ccc2c(c1)CC1SC(=NCCCN3CCOCC3)N=C21` (stereo not drawn) [Example 2], `CC1c2sc(NCCCN3CCOCC3)nc2-c2cccc(Cl)c21` (stereo not drawn) [Example 83 (dihydrochloride)] is lower in Ulcer inhibition ratio: 93.5% for the first, 85.9% for the second.

`CC(C)CNc1nc2c(s1)Cc1ccccc1-2` [Example 7] gave a Ulcer inhibition ratio of 79.0%.
